The target of assay [1] is tyrosinase (Agaricus bisporus, UniProt C7FF04). Particulars: read-out: apparent Michaelis constant Km^app; cited from earlier work.
The test system of assay [2] is tyrosinase. It counts as biochemical. Particulars: NEST biosensor, 0.1 M phosphate buffer pH 7.0, −0.1 V.
The test system of assay [3] is Alkaline phosphatase. Briefly: Bi-enzyme electrode of tyrosinase and alkaline phosphatase: current response to substrate. It counts as biochemical. Particulars: Table 1-2 lower part.
Assay [4] has as its system tyrosinase. It counts as biochemical. As to conditions: for Average sensitivity (control experiments): PLL-Tyr bilayers without an esterase layer.
For assay [5], the system named is acetylcholinesterase. Briefly: Bi-enzyme electrode of tyrosinase and acetylcholinesterase: current response to substrate. As to conditions: for Average sensitivity: tyrosinase/acetylcholinesterase electrode. The class given is biochemical.
Assay [6] deals with NEST (recombinant esterase domain of NTE) (Homo sapiens, UniProt Q8IY17). It counts as biochemical.
For assay [7], the system named is butyrylcholinesterase. The assay is described as follows: Bi-enzyme electrode of tyrosinase and butyrylcholinesterase: current response to substrate. The class given is biochemical.
Assay [8] deals with T1, NEST (Homo sapiens, UniProt Q8IY17).
T1 construct: recombinant esterase domain of NTE (NEST) of the present invention comprising amino acid residues 727-1216 of NTE; histidine tag; made in house; host or cells: E. coli BL21(DE3), pET-21b vector
T1 sequence (Q8IY17 775-1264): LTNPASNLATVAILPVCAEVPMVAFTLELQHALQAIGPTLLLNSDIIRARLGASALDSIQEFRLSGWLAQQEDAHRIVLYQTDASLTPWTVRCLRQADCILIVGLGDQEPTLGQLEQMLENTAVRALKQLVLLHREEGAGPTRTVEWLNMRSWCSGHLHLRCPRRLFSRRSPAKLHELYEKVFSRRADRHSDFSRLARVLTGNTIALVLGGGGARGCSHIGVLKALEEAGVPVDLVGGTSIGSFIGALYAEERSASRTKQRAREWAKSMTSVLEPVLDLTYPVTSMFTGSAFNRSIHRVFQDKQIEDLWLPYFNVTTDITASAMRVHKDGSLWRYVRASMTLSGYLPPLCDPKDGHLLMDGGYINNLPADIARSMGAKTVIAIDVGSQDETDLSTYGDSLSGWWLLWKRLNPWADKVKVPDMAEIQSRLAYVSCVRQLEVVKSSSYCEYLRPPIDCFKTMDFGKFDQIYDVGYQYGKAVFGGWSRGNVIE
Briefly: NEST biosensor: amperometric response to phenyl valerate. It counts as biochemical. As to conditions: for Average sensitivity: tyrosinase/NEST electrode.

Where “and” joins values, the source holds several entries; their conditions need not be identical. Identical values can stand only once.

Chain of tyrosinase (Agaricus bisporus, UniProt C7FF04) (C7FF04 1-392): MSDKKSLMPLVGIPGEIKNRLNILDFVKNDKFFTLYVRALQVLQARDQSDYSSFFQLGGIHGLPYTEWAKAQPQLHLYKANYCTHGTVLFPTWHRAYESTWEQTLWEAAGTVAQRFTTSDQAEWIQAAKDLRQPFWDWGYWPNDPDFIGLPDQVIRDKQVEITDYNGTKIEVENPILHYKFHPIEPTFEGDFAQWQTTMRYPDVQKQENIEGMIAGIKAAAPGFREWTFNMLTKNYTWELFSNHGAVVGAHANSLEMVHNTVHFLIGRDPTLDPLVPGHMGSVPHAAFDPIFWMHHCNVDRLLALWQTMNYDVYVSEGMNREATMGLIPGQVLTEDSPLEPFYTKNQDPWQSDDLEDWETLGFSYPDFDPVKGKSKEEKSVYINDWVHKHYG

For the molecule `Oc1ccccc1O` [catechol], in assay [1], the Km (as a rule, the substrate concentration at which the rate is half of its maximum) is approximately 220 µM. In addition, in assay [2], the sensitivity was found to be 2.5±0.1 μAμM^−1 cm^−2.

`O=P(O)(O)Oc1ccccc1` [Phenyl phosphate] registered an Average sensitivity in assay [3] of 236 ± 10 nAμM^−1cm^−2. The “Average sensitivity (control experiments)” value in assay [4] was 0.3 nAμM^−1cm^−2.

Turning to `CC(=O)Oc1ccccc1` [Phenyl acetate, phenyl acetate], the “Average sensitivity (control experiments)” value in assay [4] worked out at 0.4 nAμM^−1cm^−2. The Average sensitivity was determined as 180 ± 8 nAμM^−1cm^−2 in assay [5] (Table 1-2 lower part) and 180 ± 25 nAμM^−1cm^−2 in assay [5] (Table 1-2 upper part).

As for `Oc1ccccc1` [phenol], in assay [1], the Km was approximately 250 µM. In addition, the Average sensitivity in assay [2] is listed as approximately 410±30 nAμM^−1 cm^−2.

Take `O=S(=O)(F)Cc1ccccc1` [PMSF, phenylmethylsulfonyl fluoride]: the “drop in current after addition of NEST inhibitor (dose dependence)” value in assay [6] was “dose-dependent response”.

For `CCCCC(=O)Oc1ccccc1` [Phenyl valerate, phenyl valerate], the “Average sensitivity (control experiments)” value in assay [4] was 0.5 nAμM^−1cm^−2 and 0.3 nAμM^−1cm^−2. Besides, the “rise in steady state current on addition of substrate” value in assay [4] (electrode with poly-L-lysine and tyrosinase bilayers without NEST) was “relatively very small rise in steady state current”. For the same molecule, in assay [5] (used as substrate instead of phenyl acetate), the “rise in current with substrate” value is “no significant rise in current”. Further, the Average sensitivity in assay [7] (Table 1-2 lower part) is given as 70 ± 5 nAμM^−1cm^−2; in assay [7] (Table 1-2 upper part), 25 ± 10 nAμM^−1cm^−2; in assay [8] (Table 1-2 lower part) it was 88 ± 6 nAμM^−1cm^−2; in assay [8] (Table 1-2 upper part) it was 87 ± 8 nAμM^−1cm^−2. Moreover, in assay [8] (0.1 M phosphate buffer, pH 7.0, −0.1 V vs Ag/AgCl), the “concentration at which response reached saturation” value is recorded as “approximately 30 μM”. The mean current result in assay [8] (phenyl valerate 4 μM, n=10 electrodes) is reported as “approximately 348 nA cm^−2”. For the same molecule, the limit of detection in assay [8] (signal-to-noise ratio of three) came out at 0.5 µM.

(Values after patent US8623196B2 (priority 2007, dated 2014).)
